# Experimental data reported in the supplement of paper PMC9663587.
# Key:
# BSJ-03-123 = compound: CC(=O)c1c(C)c2cnc(Nc3ccc(N4CCN(CCOCCOCCOCCNC(=O)COc5cccc6c5C(=O)N(C5CCC(=O)NC5=O)C6=O)CC4)cn3)nc2n(C2CCCC2)c1=O [BSJ-03-123]; assay: increase in dead-cell fraction, 72 h; higher = more death;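 also: breast cancer cell lines in 384-well plates, stained with Hoechst plus LIVE/DEAD far red dye and imaged, cells above an LDR intensity threshold counted dead, Hoechst-negative corpses included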
# YKL-5-124 = compound: C=CC(=O)Nc1ccc(C(=O)Nc2[nH]nc3c2CN(C(=O)N[C@H](CN(C)C)c2ccccc2)C3(C)C)cc1 [YKL-5-124]; assay: as above
# [1] = compound: CCc1cnn2c(NCc3ccc[n+]([O-])c3)cc(N3CCCC[C@H]3CCO)nc12; assay: as above
# THZ531 = compound: CN(C)C/C=C/C(=O)Nc1ccc(C(=O)N2CCC[C@@H](Nc3ncc(Cl)c(-c4c[nH]c5ccccc45)n3)C2)cc1 [THZ531]; assay: as above
# Flavopiridol = compound: CN1CC[C@H](c2c(O)cc(O)c3c(=O)cc(-c4ccccc4Cl)oc23)[C@H](O)C1 [Flavopiridol]; assay: as above
# Neratinib/HKI272 = compound: CCOc1cc2ncc(C#N)c(Nc3ccc(OCc4ccccn4)c(Cl)c3)c2cc1NC(=O)/C=C/CN(C)C [Neratinib/HKI272]; assay: as above
# THZ1 = compound: CN(C)C/C=C/C(=O)Nc1ccc(C(=O)Nc2cccc(Nc3ncc(Cl)c(-c4c[nH]c5ccccc45)n3)c2)cc1 [THZ1]; assay: as above
# [2] = compound: CC(=O)c1c(C)c2cnc(Nc3ccc(N4CCNCC4)cn3)nc2n(C2CCCC2)c1=O; assay: as above
# LEE011/Ribociclib [3] = compound: T1, CN(C)C(=O)c1cc2cnc(Nc3ccc(N4CCNCC4)cn3)nc2n1C1CCCC1 [LEE011/Ribociclib]; assay: as above
# [4] = compound: CCN1CCN(Cc2ccc(Nc3ncc(F)c(-c4cc(F)c5nc(C)n(C(C)C)c5c4)n3)nc2)CC1; assay: as above
# Pictilisib/GDC0941 = compound: CS(=O)(=O)N1CCN(Cc2cc3nc(-c4cccc5[nH]ncc45)nc(N4CCOCC4)c3s2)CC1 [Pictilisib/GDC0941]
# [5] = compound: CCc1cnn2c(NCc3ccc[n+]([O-])c3)cc(N3CCCC[C@H]3CCO)nc12
# Doxorubicin = compound: COc1cccc2c1C(=O)c1c(O)c3c(c(O)c1C2=O)C[C@@](O)(C(=O)CO)C[C@@H]3O[C@H]1C[C@H](N)[C@H](O)[C@H](C)O1 [Doxorubicin]
# Ceritinib/LDK378 = compound: Cc1cc(Nc2ncc(Cl)c(Nc3ccccc3S(=O)(=O)C(C)C)n2)c(OC(C)C)cc1C1CCNCC1 [Ceritinib/LDK378]
# [6] = compound: Cc1nn(C)c(COc2ccc(N3CCN(S(=O)(=O)N(C)C)CC3)cc2)c1-c1cccc2c(CCCOc3cccc4ccccc34)c(C(=O)O)n(CCN3CCOCC3)c12
# LEE011/Ribociclib [7] = compound: T1, LEE011/Ribociclib
# 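For GR50, 72 h in this document: breast cancer and non-malignant breast epithelial cell lines, Deep Dye Drop or Dye Drop imaging, nine half-log doses, GR normalized to time-zero plates and DMSO-only controls.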
cell line,measurement,setting,value
EFM19,increase in dead-cell fraction,BSJ-03-123; 0.001 µM,-0.0051
same,increase in dead-cell fraction,BSJ-03-123; 0.003162 µM,-0.0117
same,increase in dead-cell fraction,BSJ-03-123; 0.01 µM,0.001
same,increase in dead-cell fraction,BSJ-03-123; 0.03162 µM,0.0013
same,increase in dead-cell fraction,BSJ-03-123; 0.1 µM,-0.0048
same,increase in dead-cell fraction,BSJ-03-123; 0.3162 µM,-0.0048
same,increase in dead-cell fraction,BSJ-03-123; 1 µM,0.009
same,increase in dead-cell fraction,BSJ-03-123; 3.162 µM,0.0049
same,increase in dead-cell fraction,BSJ-03-123; 10 µM,0.0309
same,increase in dead-cell fraction,YKL-5-124; 0.001 µM,0.0076
same,increase in dead-cell fraction,YKL-5-124; 0.003162 µM,0.0133
same,increase in dead-cell fraction,YKL-5-124; 0.01 µM,0.0465
same,increase in dead-cell fraction,YKL-5-124; 0.03162 µM,0.0193
same,increase in dead-cell fraction,YKL-5-124; 0.1 µM,0.0243
same,increase in dead-cell fraction,YKL-5-124; 0.3162 µM,0.0368
same,increase in dead-cell fraction,YKL-5-124; 1 µM,0.0396
same,increase in dead-cell fraction,YKL-5-124; 3.162 µM,0.0167
same,increase in dead-cell fraction,YKL-5-124; 10 µM,0.0439
same,increase in dead-cell fraction,[1]; 0.0001 µM,-0.0077
same,increase in dead-cell fraction,[1]; 0.0003162 µM,-0.0011
same,increase in dead-cell fraction,[1]; 0.001 µM,-0.006
same,increase in dead-cell fraction,[1]; 0.003162 µM,-0.0052
same,increase in dead-cell fraction,[1]; 0.01 µM,-0.0076
same,increase in dead-cell fraction,[1]; 0.03162 µM,0.0197
same,increase in dead-cell fraction,[1]; 0.1 µM,0.148
same,increase in dead-cell fraction,[1]; 0.3162 µM,0.323
same,increase in dead-cell fraction,[1]; 1 µM,0.478
same,increase in dead-cell fraction,THZ531; 0.0001 µM,-0.0038
same,increase in dead-cell fraction,THZ531; 0.0003162 µM,-0.0067
same,increase in dead-cell fraction,THZ531; 0.001 µM,-0.005
same,increase in dead-cell fraction,THZ531; 0.003162 µM,-0.0057
same,increase in dead-cell fraction,THZ531; 0.01 µM,-0.0007
same,increase in dead-cell fraction,THZ531; 0.03162 µM,0.0062
same,increase in dead-cell fraction,THZ531; 0.1 µM,0.0006
same,increase in dead-cell fraction,THZ531; 0.3162 µM,-0.0035
same,increase in dead-cell fraction,THZ531; 1 µM,0.527
same,increase in dead-cell fraction,Flavopiridol; 0.0001 µM,-0.0095
same,increase in dead-cell fraction,Flavopiridol; 0.0003162 µM,-0.003
same,increase in dead-cell fraction,Flavopiridol; 0.001 µM,-0.0007
same,increase in dead-cell fraction,Flavopiridol; 0.003162 µM,0.0016
same,increase in dead-cell fraction,Flavopiridol; 0.01 µM,0.0002
same,increase in dead-cell fraction,Flavopiridol; 0.03162 µM,-0.0106
same,increase in dead-cell fraction,Flavopiridol; 0.1 µM,-0.0044
same,increase in dead-cell fraction,Flavopiridol; 0.3162 µM,0.0118
same,increase in dead-cell fraction,Flavopiridol; 1 µM,0.223
same,increase in dead-cell fraction,Neratinib/HKI272; 0.0003162 µM,-0.0049
same,increase in dead-cell fraction,Neratinib/HKI272; 0.001 µM,-0.0044
same,increase in dead-cell fraction,Neratinib/HKI272; 0.003162 µM,-0.0012
same,increase in dead-cell fraction,Neratinib/HKI272; 0.01 µM,-0.0052
same,increase in dead-cell fraction,Neratinib/HKI272; 0.03162 µM,-0.0028
same,increase in dead-cell fraction,Neratinib/HKI272; 0.1 µM,-0.0038
same,increase in dead-cell fraction,Neratinib/HKI272; 0.3162 µM,-0.0011
same,increase in dead-cell fraction,Neratinib/HKI272; 1 µM,-0.0033
same,increase in dead-cell fraction,Neratinib/HKI272; 3.162 µM,0.0028
same,increase in dead-cell fraction,THZ1; 0.0001 µM,-0.004
same,increase in dead-cell fraction,THZ1; 0.0003162 µM,-0.0048
same,increase in dead-cell fraction,THZ1; 0.001 µM,-0.0107
same,increase in dead-cell fraction,THZ1; 0.003162 µM,-0.0093
same,increase in dead-cell fraction,THZ1; 0.01 µM,-0.0068
same,increase in dead-cell fraction,THZ1; 0.03162 µM,-0.0102
same,increase in dead-cell fraction,THZ1; 0.1 µM,-0.002
same,increase in dead-cell fraction,THZ1; 0.3162 µM,0.0031
same,increase in dead-cell fraction,THZ1; 1 µM,0.215
same,increase in dead-cell fraction,[2]; 0.0003162 µM,-0.0086
same,increase in dead-cell fraction,[2]; 0.001 µM,-0.0086
same,increase in dead-cell fraction,[2]; 0.003162 µM,-0.0036
same,increase in dead-cell fraction,[2]; 0.01 µM,-0.0059
same,increase in dead-cell fraction,[2]; 0.03162 µM,-0.0024
same,increase in dead-cell fraction,[2]; 0.1 µM,-0.0087
same,increase in dead-cell fraction,[2]; 0.3162 µM,0.0108
same,increase in dead-cell fraction,[2]; 1 µM,0.0355
same,increase in dead-cell fraction,[2]; 3.162 µM,0.0448
same,increase in dead-cell fraction,LEE011/Ribociclib [3]; 0.001 µM,-0.0027
same,increase in dead-cell fraction,LEE011/Ribociclib [3]; 0.003162 µM,-0.0038
same,increase in dead-cell fraction,LEE011/Ribociclib [3]; 0.01 µM,-0.0001
same,increase in dead-cell fraction,LEE011/Ribociclib [3]; 0.03162 µM,-0.0005
same,increase in dead-cell fraction,LEE011/Ribociclib [3]; 0.1 µM,0.0163
same,increase in dead-cell fraction,LEE011/Ribociclib [3]; 0.3162 µM,0.0047
same,increase in dead-cell fraction,LEE011/Ribociclib [3]; 1 µM,0.0042
same,increase in dead-cell fraction,LEE011/Ribociclib [3]; 3.162 µM,0.0248
same,increase in dead-cell fraction,LEE011/Ribociclib [3]; 10 µM,0.0149
same,increase in dead-cell fraction,[4]; 0.001 µM,-0.0101
same,increase in dead-cell fraction,[4]; 0.003162 µM,-0.0007
same,increase in dead-cell fraction,[4]; 0.01 µM,0.0035
same,increase in dead-cell fraction,[4]; 0.03162 µM,0.0136
same,increase in dead-cell fraction,[4]; 0.1 µM,0.0179
same,increase in dead-cell fraction,[4]; 0.3162 µM,0.0249
same,increase in dead-cell fraction,[4]; 1 µM,0.0149
same,increase in dead-cell fraction,[4]; 3.162 µM,0.0183
same,increase in dead-cell fraction,[4]; 10 µM,0.0445
same,"GR50, 72 h",Pictilisib/GDC0941,0.23 µM
same,"GR50, 72 h",[5],0.0283 µM
same,"GR50, 72 h",Doxorubicin,0.0513 µM
same,"GR50, 72 h",Ceritinib/LDK378,5.52 µM
same,"GR50, 72 h",[6],> 10 µM
same,"GR50, 72 h",LEE011/Ribociclib [7],1.71 µM
